How the values were obtained:
[1] = biological target: T1, hemoglobin (20% hct blood) (Homo sapiens, UniProt P68871+P69905); assay: Dose-dependent whole blood OEC studies; format: cell-based; conditions: 37° C., 1 hr; for delta p50 0.2 mM: 0.2 mM compound; for delta p50 0.5 mM: 0.5 mM compound
T1 construct: Normal whole blood was collected from adult healthy donors; from tissue; host or cells: normal human whole blood (red blood cells), adult healthy donors
Experimental: Materials: Normal whole blood was collected from adult healthy donors at the Virginia Commonwealth University after informed consent. The use of these human samples is in accordance with regulations of the IRB for Protection of Human Subjects. Compounds (50 mM-100 mM concentration in DMSO) were stored at 15° C. or room temperature until use.
To 2 ml 20% hct blood, 0.2 or 0.5 or 1 mM compound was added and kept shaking at 37° C. for 1 hr. OEC analysis was performed as described above to determine partial pressure of oxygen (pO2) and Hb oxygen saturation values (sO2). A control without compound but containing equivalent amount of DMSO was performed (1%). GBT440 was used as a positive control. Table 2 below lists the delta p50% values.

[2] = test system: sickled HbSS whole blood (RBC sickling); assay: Anti-sickling assay in HbSS sickled blood under hypoxic induction; format: cell-based, human; conditions: HbSS whole blood 26% Hct, 20 mins hypoxic induction; 0.2 mM compounds (FIG. 2)
Experimental: Materials: • Blood collected after informed consent from sickle cell individuals. • HBS buffer: 10 mM HEPES, 145 mM NaCl, pH 7.4 • Hemox buffer: Buffer provided for the hemox analyzer • Control Compound stock solution in DMSO (50 mM) stored at RT • Control Compound work solution (CWS): 10 μl of DMSO was added by Hamilton to 90 μl of HBS buffer (20 mM Hepes, 145 mM NaCl, pH 7.4) to create a working solution with a final concentration of 5 mM drug and 10% DMSO). • Compound stock solution in DMSO (50 mM) stored at RT • Compound work solution (WS): 10 μl of DMSO was added by Hamilton to 90 μl of HBS buffer (20 mM Hepes, 145 mM NaCl, pH 7.4) to create a working solution with a final concentration of 5 mM drug and 10% DMSO). • DMSO buffer: 10% DMSO (DB), same as WS but without drug. This will be used to maintain DMSO the same for different drug incubations. Test Protocol:
Collect blood from Clinic: Blood were collected after informed consent according to an approved IRB protocol. • Run Advia 120 analysis on SCD blood, to determine Hct. • Dilute blood to 20% Hct with HBS to total volume of 3 ml. • This cell suspension (CS) will be used for all experiments.
Incubation • 1. 200 μl CS • 2. 200 μl CS+20 μl CWS (5 mM diluted 10 times=0.5 mM control final)−(1% DMSO) • 3. 200 μl CS+20 μl WS (5 mM diluted 10 times=0.5 mM control final)−(1% DMSO) • 4. 200 μl CS+8 μl WS (0.2 mM drug final)+DB−(1% DMSO) • Incubate 30 minutes at 37° C.
50 μl into 1 ml HBS+2% BSA buffer. Eight time points (0-20 minutes) at 2% oxygen, 10,000 events each)
The sickling runs provide sets samples that need to be run on the AMNIS image flow and are subsequently analyzed with pixel analysis software.
Drug was provided at 50 mM concentration in DMSO, and stored at room temperature until use. 10 μl of DMSO was added by Hamilton to 90 μl of HBS buffer (20 mM Hepes, 145 mM NaCl, pH 7.4) to create a working solution with a final concentration of 5 mM drug and 10% DMSO). Blood was collected from a sickle cell patient in EDTA anticoagulant. To 200 μl of whole blood, a 20 or 8 μl of working solution was added resulting in a final drug concentration of 0.5 mM or 0.2 mM respectively. The DMSO concentration in both was corrected to 1%. The final hematocrit was measured by ADVIA analysis to be 26%. […] The delta hemox (%) comparing Example 29e with GBT440 is shown in FIG. 1A (0.2 mM) and FIG. 1B (0.5 mM).
Anti-sickling is shown in FIG. 2 with M: maximum percentage of sickled cells during 20 mins of hypoxic induction, T: time needed to reach 50% of M, and Z: baseline percentage of sickled cells prior to hypoxic induction.

CYP1A2 = biological target: T2, CYP1A2 (Homo sapiens, UniProt P05177); assay: CYP inhibition evaluation in human liver microsomes; format: in vitro ADME
T2 construct: from tissue; host or cells: human liver microsomes
T2 sequence (P05177 1-516): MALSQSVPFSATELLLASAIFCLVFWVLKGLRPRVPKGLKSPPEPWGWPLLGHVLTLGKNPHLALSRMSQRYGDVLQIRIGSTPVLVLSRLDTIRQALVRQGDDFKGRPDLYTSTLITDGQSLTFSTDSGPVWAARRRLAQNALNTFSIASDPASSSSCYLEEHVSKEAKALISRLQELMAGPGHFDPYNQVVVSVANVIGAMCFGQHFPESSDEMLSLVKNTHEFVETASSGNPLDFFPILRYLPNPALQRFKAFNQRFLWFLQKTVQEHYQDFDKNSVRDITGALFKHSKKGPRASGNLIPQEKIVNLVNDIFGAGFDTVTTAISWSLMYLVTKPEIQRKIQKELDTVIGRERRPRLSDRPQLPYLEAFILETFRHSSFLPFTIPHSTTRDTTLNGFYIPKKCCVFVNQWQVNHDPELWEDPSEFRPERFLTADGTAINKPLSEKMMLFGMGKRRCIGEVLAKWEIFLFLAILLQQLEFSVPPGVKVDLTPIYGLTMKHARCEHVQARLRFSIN
Source text: (§1) Example A5: CYP Inhibition Evaluation in Human Liver Microsomes

CYP2C19 = biological target: T3, CYP2C19 (Homo sapiens, UniProt P33261); assay: as above; format: in vitro ADME
T3 construct: from tissue; host or cells: human liver microsomes
T3 sequence (P33261 whole entry): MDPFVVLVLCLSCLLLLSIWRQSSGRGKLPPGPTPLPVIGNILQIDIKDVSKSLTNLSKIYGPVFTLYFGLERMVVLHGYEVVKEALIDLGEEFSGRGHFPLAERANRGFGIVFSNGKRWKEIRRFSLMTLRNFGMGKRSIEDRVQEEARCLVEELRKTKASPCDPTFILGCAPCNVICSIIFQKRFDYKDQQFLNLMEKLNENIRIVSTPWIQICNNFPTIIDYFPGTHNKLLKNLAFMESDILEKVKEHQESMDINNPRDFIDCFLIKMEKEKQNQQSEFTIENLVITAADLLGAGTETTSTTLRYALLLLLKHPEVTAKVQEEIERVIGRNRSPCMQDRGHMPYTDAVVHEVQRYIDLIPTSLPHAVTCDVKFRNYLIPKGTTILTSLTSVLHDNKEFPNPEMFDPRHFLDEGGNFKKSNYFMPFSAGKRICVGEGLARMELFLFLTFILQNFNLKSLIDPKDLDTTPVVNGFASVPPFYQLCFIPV
Source text: as §1

CYP2C8 = biological target: T4, CYP2C8 (Homo sapiens, UniProt P10632); assay: as above; format: in vitro ADME
T4 construct: from tissue; host or cells: human liver microsomes
T4 sequence (P10632 1-490): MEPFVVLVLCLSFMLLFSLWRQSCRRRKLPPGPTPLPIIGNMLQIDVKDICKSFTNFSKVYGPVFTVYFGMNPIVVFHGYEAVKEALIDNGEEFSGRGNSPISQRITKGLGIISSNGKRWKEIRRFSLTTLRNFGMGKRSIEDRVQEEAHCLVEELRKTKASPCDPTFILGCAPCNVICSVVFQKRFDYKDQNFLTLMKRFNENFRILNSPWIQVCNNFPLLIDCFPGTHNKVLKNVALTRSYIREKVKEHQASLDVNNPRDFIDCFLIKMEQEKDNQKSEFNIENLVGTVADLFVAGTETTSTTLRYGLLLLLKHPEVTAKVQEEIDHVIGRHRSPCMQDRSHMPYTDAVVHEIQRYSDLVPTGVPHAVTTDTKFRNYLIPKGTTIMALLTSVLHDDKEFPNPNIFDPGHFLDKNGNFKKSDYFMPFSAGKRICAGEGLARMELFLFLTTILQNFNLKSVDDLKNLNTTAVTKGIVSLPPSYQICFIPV
Source text: as §1

CYP2C9 = biological target: T5, CYP2C9 (Homo sapiens, UniProt P11712); assay: as above; format: in vitro ADME
T5 construct: from tissue; host or cells: human liver microsomes
T5 sequence (P11712 whole entry): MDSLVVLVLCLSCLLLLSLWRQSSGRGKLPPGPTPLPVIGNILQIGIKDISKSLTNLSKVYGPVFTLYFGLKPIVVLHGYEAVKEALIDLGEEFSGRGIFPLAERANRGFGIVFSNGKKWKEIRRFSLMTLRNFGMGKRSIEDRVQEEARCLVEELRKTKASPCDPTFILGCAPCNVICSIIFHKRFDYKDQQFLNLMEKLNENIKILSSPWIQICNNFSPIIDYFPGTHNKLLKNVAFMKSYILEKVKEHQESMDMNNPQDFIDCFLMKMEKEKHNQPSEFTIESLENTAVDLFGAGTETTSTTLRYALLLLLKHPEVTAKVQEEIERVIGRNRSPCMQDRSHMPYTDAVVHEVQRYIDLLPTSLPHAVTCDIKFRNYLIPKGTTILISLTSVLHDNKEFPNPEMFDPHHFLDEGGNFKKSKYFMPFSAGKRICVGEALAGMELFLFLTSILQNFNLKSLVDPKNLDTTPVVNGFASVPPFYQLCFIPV
Source text: as §1

CYP2D6 = biological target: T6, CYP2D6 (Homo sapiens, UniProt P10635); assay: as above; format: in vitro ADME
T6 construct: from tissue; host or cells: human liver microsomes
T6 sequence (P10635 whole entry): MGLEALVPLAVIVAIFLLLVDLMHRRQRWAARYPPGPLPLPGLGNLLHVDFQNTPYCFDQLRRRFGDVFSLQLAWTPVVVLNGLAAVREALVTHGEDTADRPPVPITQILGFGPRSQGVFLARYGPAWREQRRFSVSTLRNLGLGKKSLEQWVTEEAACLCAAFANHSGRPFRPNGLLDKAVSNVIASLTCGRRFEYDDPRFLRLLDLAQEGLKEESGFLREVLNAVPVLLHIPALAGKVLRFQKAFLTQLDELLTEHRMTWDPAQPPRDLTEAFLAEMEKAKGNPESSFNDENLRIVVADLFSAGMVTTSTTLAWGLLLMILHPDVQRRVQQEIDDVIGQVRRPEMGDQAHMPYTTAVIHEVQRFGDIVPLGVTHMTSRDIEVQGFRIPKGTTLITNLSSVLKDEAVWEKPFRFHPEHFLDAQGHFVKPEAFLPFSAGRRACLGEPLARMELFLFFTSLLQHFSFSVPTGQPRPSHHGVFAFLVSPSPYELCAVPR
Source text: as §1

CYP3A4-M = biological target: T7, CYP3A4-M (Homo sapiens, UniProt P08684); assay: as above; format: in vitro ADME
T7 construct: from tissue; host or cells: human liver microsomes
T7 sequence (P08684 whole entry): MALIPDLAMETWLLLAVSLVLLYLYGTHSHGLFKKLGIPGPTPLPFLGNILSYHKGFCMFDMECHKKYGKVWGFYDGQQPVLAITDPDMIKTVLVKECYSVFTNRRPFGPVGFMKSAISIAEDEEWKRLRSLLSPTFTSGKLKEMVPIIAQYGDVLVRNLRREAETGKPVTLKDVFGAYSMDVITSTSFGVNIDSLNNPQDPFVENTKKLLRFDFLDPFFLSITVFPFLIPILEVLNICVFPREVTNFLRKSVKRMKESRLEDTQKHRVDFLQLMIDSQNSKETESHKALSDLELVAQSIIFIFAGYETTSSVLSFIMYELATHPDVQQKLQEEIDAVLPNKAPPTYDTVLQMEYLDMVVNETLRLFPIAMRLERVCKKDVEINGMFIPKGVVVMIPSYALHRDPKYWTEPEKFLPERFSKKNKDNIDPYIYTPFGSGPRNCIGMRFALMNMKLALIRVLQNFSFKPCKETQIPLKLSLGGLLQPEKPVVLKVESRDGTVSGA
Source text: as §1

[3] = Microsome stability evaluation in rat liver microsomes; format: in vitro ADME; conditions: read-out: Rat microsome, t½
Source text: (§2) Example A6: Microsome Stability Evaluation in Human and Rat Liver Microsomes

[4] = Microsome stability evaluation in human liver microsomes; format: in vitro ADME; conditions: read-out: Human microsome, t½
Source text: as §2

T1 sequence (P69905 2-142 limits assumed): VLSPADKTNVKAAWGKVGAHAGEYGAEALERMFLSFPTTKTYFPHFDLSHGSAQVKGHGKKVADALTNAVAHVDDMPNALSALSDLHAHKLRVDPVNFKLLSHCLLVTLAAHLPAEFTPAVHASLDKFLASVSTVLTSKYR
T1 sequence (P68871 2-147 limits assumed): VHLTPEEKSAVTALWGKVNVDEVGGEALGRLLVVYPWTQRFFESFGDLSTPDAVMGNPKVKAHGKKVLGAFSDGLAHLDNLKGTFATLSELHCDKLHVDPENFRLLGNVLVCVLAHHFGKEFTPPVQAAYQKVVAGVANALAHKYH

delta p50 0.2 mM [1]	delta p50 0.5 mM [1]	IC50 (CYP1A2)	IC50 (CYP2C19)	IC50 (CYP2C8)	IC50 (CYP2C9)	IC50 (CYP2D6)	IC50 (CYP3A4-M)	half-life [3]	half-life [4]	SMILES	Reduction in % sickled cells compared to untreated [2]
−14.2%	−35.1%	17.6 µM	7 µM	12.4 µM	28.1 µM	> 30 µM	> 30 µM	22 min	24 min	CC(C)n1nccc1-c1ncccc1COc1cccc(O)c1C=O [GBT440, reference compound]	−22.4%
−18.8%	−56.6%	22 µM	6.1 µM	3.7 µM	11 µM	> 30 µM	10 µM	19 min	24 min	[2H]C([2H])(Oc1cc(F)cc(O)c1C=O)c1cccnc1-c1ccnn1C(C)C [Example 27b, 4-fluoro-2-hydroxy-6-((2-(1-isopropyl-1H-pyrazol-5-yl)pyridin-3-yl)methoxy-d2)benzaldehyde]	−30.8%
−24.9%	−66.1%	> 50 µM	19.5 µM	> 50 µM	36.5 µM	> 50 µM	> 50 µM	11 min	11 min	[2H]C([2H])(Oc1cccc(O)c1C=O)c1cccnc1-n1ccnc1C(C)C [Example 29e, 2-hydroxy-6-((2-(2-isopropyl-1H-imidazol-1-yl)pyridin-3-yl)methoxy-d2)benzaldehyde]	−27.1%

Reference: patent US10787430B2, “Hemoglobin modifier compounds and uses thereof” (FronThera U.S. Pharmaceuticals LLC, priority 2016, dated 2020)
